Experimental data published in ChEMBL document CHEMBL1159015, “Isolation of the bioactive terpene 7-deacetoxy-olepupuane from the temperate marine sponge Dysidea sp” (J Nat Prod, 1992).
In brackets after ≈: the same amount, converted by molar mass.

System: P388
Experiment: Cytotoxicity against mouse P388 cells
Format: functional, cell-based

CC(=O)O[C@@H]1OC=C2CC[C@H]3C(C)(C)CCC[C@]3(C)[C@H]21
IC50: 16.4 µg/mL (≈ 58.9 µM)
